# Data reported in US20110009332A1, “Therapeutic Treatment Of Wounds” (SOUTHWEST RESEARCH INSTITUTE, priority 2009, published 2011).
# Where a SMILES comes first, the peptide text is derived from it. The star is where a group is joined. Cbz = O=C(OCc1ccccc1)*; OtBu = CC(C)(C)O*
# System: BMP-1
# Assay: BMP-1 gene expression (qPCR, normalized over 18S) in human dermal fibroblasts
# Type: cell-based
# Method: An examination of gene expression of BMP-1 was conducted using a number of proteasome inhibitors including, proteasome inhibitor-1, curcumin, MG-132 and bortezomib. Human neonatal dermal fibroblasts (AllCells, Catalog No. HN006001) were maintained in Dulbecco's modified Eagle's medium (DMEM) supplemented with 10% fetal bovine serum. Early passage cells were plated at 2×10^4 cells/cm^2 and grown in humidified 5% CO2 at 37° C. for 24 hours. Spent media was replaced the following day with assay media including Proteasome inhibitor-1 was added in DMEM at 1 μM and 0.1 μM. Untreated cells were used as the control group. For the human osteogenesis PCR array, the experimental group was treated only at 1 μM. In addition, in separate trials, spent media was replace by assay media of curcumin added in DMEM at 10 μM and 100 μM, MG-132 in DMEM at 0.1 μM and 1 μM, and bortezomib in DMEM at 0.1 μm and 1 μM.
# Phenol-chloroform extraction was performed to isolate the total RNA for real time polymerase chain reaction array. More specifically, the total RNA was prepared using TRI REAGENT (Ambion, product number 9738), wherein the total RNA was obtained from the human neonatal dermal fibroblasts. Note that isolation was performed as per the instructions provided with the TRI REAGENT. The RNA was used for subsequent quantitative polymerase chain reaction (qPRC) gene expression of BMP1 measured using hydrolysis probes (TAQMAN probes available from Applied Biosystems) as described further below.
# Concentration and integrity of the obtained total RNA was assessed by absorbance in a spectrophotometer at 260 nm and 280 nm and by electrophoresis in 1% agarose with formaldehyde loading dye. For TAQMAN gene expression assays, cDNA was synthesized from 2 μg of total RNA using the High Capacity cDNA Reverse Transcription Kit (Applied Biosystems, product number 4368814), again following the protocol supplied with the kit. The resulting cDNA was diluted 1:10.
# For TAQMAN gene expression, gene-specific fluorescent labeled TAQMAN primers for FAM-BMP1 (Applied Biosystems, product Hs0098677.g1) and TAQMAN reference VIC-18S ribosomal RNA (Applied Biosystems, product number 4310893E) were used to target the gene of interest. A cocktail of universal master mix (Applied Biosystems, product number 4369016) was prepared individually for both set of primers which contained Taq Polymerase, dNTPs, and buffer. Template cDNA's were added separately to respective individual wells in triplicate samples. PCR was performed on StepOne Plus Real Time System instrument (Applied Biosystems). The amplification program consisted of 1 cycle of 95° C. with 10 minute hold (hot start) followed by 50 cycles of 95° C. with 15 second annealing hold and 1 minute 60° C. specified acquisition hold.
# For human osteogenisis PCR array, total RNA was prepared using silica matrix purification using RNEASY MINI KIT (Qiagen, product number 74101) according to the manufacturer's recommendations. cDNA was synthesized from 1 μg of purified DNA-free RNA accordingly to RT^2First Strand Kit (SABiosciences, C-03). The resulting cDNA was diluted 1:30 and amplified. The procedure for the PCR array using real-time PCR is based on the RT^2 Profiler PCR array system instructions for Human Osteogenesis (SABiosciences, product number PAHS-026C). A cocktail reaction mix was setup as recommended by the PCR manufacturer (SABiosceiences, product number PA-012). PCR was performed using the same temperature parameters as used with the StepOne Plus Real Time System instrument. The Ct value of endogenous reference gene (i.e. 18s) was used to control for input RNA and then used to normalize target gene (i.e. BMP-1) tested from the same cDNA sample (Δ Ct), and then calibrated to an internal reference sample (ΔΔCt). Change in gene expression was determined by the expression 2̂-(ΔΔCt). […]
# [1] = 0.1 μM inhibitor, FIG. 27, nontreated approximately 1.52 (MG132) / 1.50 (bortezomib), may not be statistically significant
# [2] = 1 μM inhibitor, FIG. 27, nontreated approximately 1.52 (MG132) / 1.50 (bortezomib), may not be statistically significant
Structure (SMILES),BMP-1/18S mRNA levels [1],BMP-1/18S mRNA levels [2],also measured
CC(C)C[C@@H](C=O)NC(=O)[C@H](CC(C)C)NC(=O)[C@H](CC(C)C)NC(=O)OCc1ccccc1 [MG132] (Cbz-Leu-Leu-Leu-aldehyde),1.10 a.u.,1.09 a.u.,
"CC[C@H](C)[C@H](NC(=O)OCc1ccccc1)C(=O)N[C@@H](CCC(=O)OC(C)(C)C)C(=O)N[C@@H](C)C(=O)N[C@H](C=O)CC(C)C [PS-1, Z-Ile-Glu(OBu^t)-Ala-Leu-H] (Cbz-IE(OtBu)AL-aldehyde)",,,"BMP-1/18S mRNA levels (0.1 μM PS-1, FIG. 25, nontreated approximately 1.26): 0.436 a.u.; BMP-1/18S mRNA levels (1.0 μM PS-1, FIG. 25, nontreated approximately 1.26): 0.480 a.u."
COc1cc(/C=C/C(=O)CC(=O)/C=C/c2ccc(O)c(OC)c2)ccc1O [curcumin],,,"BMP-1/18S mRNA levels (10 μM curcumin, FIG. 26, nontreated approximately 1.26): 1.68 a.u.; BMP-1/18S mRNA levels (100 μM curcumin, FIG. 26, nontreated approximately 1.26): 0.882 a.u."
CC(C)C[C@H](NC(=O)[C@H](Cc1ccccc1)NC(=O)c1cnccn1)B(O)O [bortezomib],1.27 a.u.,1.27 a.u.,
